Experimental data from PubChem BioAssay (NCI).
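Grown in 96-well plates, cells were treated for 48 hours with each compound at five concentrations. Insufficient inhibition: endpoint recorded as highest concentration tested. TGI marks complete inhibition of growth.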

Tests used:
Test in all cases: NCI anticancer screen, dose series, 48 h
NCI-H226 lung = test system: NCI-H226 lung
OVCAR-4 ovarian = test system: OVCAR-4 ovarian
K-562 leukemia = test system: K-562 leukemia
MDA-MB-231 breast = test system: MDA-MB-231 breast
SK-MEL-2 melanoma = test system: SK-MEL-2 melanoma
NCI-H522 lung = test system: NCI-H522 lung
COLO 205 colon = test system: COLO 205 colon
LOX IMVI melanoma = test system: LOX IMVI melanoma
TK-10 renal = test system: TK-10 renal
786-0 renal = test system: 786-0 renal
HOP-62 NSCLC = test system: HOP-62 NSCLC
SK-OV-3 ovarian = test system: SK-OV-3 ovarian
A498 renal = test system: A498 renal
ACHN renal = test system: ACHN renal
PC-3 prostate = test system: PC-3 prostate
MCF7 breast = test system: MCF7 breast
UACC-62 melanoma = test system: UACC-62 melanoma
HCT-116 colon = test system: HCT-116 colon
SN12C renal = test system: SN12C renal
SF-295 CNS = test system: SF-295 CNS
CAKI-1 renal = test system: CAKI-1 renal
SNB-75 CNS = test system: SNB-75 CNS
MALME-3M melanoma = test system: MALME-3M melanoma
M14 melanoma = test system: M14 melanoma
MDA-N = test system: MDA-N
OVCAR-3 ovarian = test system: OVCAR-3 ovarian
KM12 colon = test system: KM12 colon
RPMI-8226 leukemia = test system: RPMI-8226 leukemia
A549 NSCLC = test system: A549 NSCLC
SR leukemia = test system: SR leukemia
DU-145 prostate = test system: DU-145 prostate
SF-539 CNS = test system: SF-539 CNS
HCC-2998 colon = test system: HCC-2998 colon
EKVX NSCLC = test system: EKVX NSCLC
CCRF-CEM leukemia = test system: CCRF-CEM leukemia
OVCAR-8 ovarian = test system: OVCAR-8 ovarian
HS 578T breast = test system: HS 578T breast
HOP-92 NSCLC = test system: HOP-92 NSCLC
T-47D breast = test system: T-47D breast
SK-MEL-28 melanoma = test system: SK-MEL-28 melanoma
U251 CNS = test system: U251 CNS
UO-31 renal = test system: UO-31 renal
NCI-H460 lung = test system: NCI-H460 lung
NCI-H23 lung = test system: NCI-H23 lung
OVCAR-5 ovarian = test system: OVCAR-5 ovarian
HT29 colon = test system: HT29 colon
SK-MEL-5 melanoma = test system: SK-MEL-5 melanoma
SNB-19 CNS = test system: SNB-19 CNS
IGROV1 ovarian = test system: IGROV1 ovarian
MDA-MB-435 = test system: MDA-MB-435
SF-268 CNS = test system: SF-268 CNS
HL-60(TB) leukemia = test system: HL-60(TB) leukemia
HCT-15 colon = test system: HCT-15 colon
UACC-257 melanoma = test system: UACC-257 melanoma
MOLT-4 leukemia = test system: MOLT-4 leukemia
RXF 393 renal = test system: RXF 393 renal

## CCN(CC)CCC1CCCCN1CC(=O)N1c2ccccc2NC(=O)c2ccccc21 (stereo unspecified)
NCI-H226 lung
  TGI: > 100 µM
OVCAR-4 ovarian
  TGI: > 100 µM
K-562 leukemia
  TGI: > 100 µM
MDA-MB-231 breast
  TGI: > 100 µM
SK-MEL-2 melanoma
  TGI: > 100 µM
NCI-H522 lung
  TGI: > 100 µM
COLO 205 colon
  TGI: > 100 µM
LOX IMVI melanoma
  TGI: > 100 µM
TK-10 renal
  TGI: > 100 µM
786-0 renal
  TGI: > 100 µM
HOP-62 NSCLC
  TGI: > 100 µM
SK-OV-3 ovarian
  TGI: > 100 µM
A498 renal
  TGI: > 100 µM
ACHN renal
  TGI: > 100 µM
PC-3 prostate
  TGI: > 100 µM
MCF7 breast
  TGI: > 100 µM
UACC-62 melanoma
  TGI: > 100 µM
HCT-116 colon
  TGI: > 100 µM
SN12C renal
  TGI: > 100 µM
SF-295 CNS
  TGI: > 100 µM
CAKI-1 renal
  TGI: > 100 µM
SNB-75 CNS
  TGI: 92.6 µM
MALME-3M melanoma
  TGI: > 100 µM
M14 melanoma
  TGI: > 100 µM
MDA-N
  TGI: > 100 µM
OVCAR-3 ovarian
  TGI: > 100 µM
KM12 colon
  TGI: > 100 µM
RPMI-8226 leukemia
  TGI: > 100 µM
A549 NSCLC
  TGI: > 100 µM
SR leukemia
  TGI: > 100 µM
DU-145 prostate
  TGI: > 100 µM
SF-539 CNS
  TGI: > 100 µM
HCC-2998 colon
  TGI: > 100 µM
EKVX NSCLC
  TGI: > 100 µM
CCRF-CEM leukemia
  TGI: > 100 µM
OVCAR-8 ovarian
  TGI: > 100 µM
HS 578T breast
  TGI: > 100 µM
HOP-92 NSCLC
  TGI: > 100 µM
T-47D breast
  TGI: > 100 µM
SK-MEL-28 melanoma
  TGI: > 100 µM
U251 CNS
  TGI: > 100 µM
UO-31 renal
  TGI: > 100 µM
NCI-H460 lung
  TGI: > 100 µM
NCI-H23 lung
  TGI: > 100 µM
OVCAR-5 ovarian
  TGI: > 100 µM
HT29 colon
  TGI: > 100 µM
SK-MEL-5 melanoma
  TGI: > 100 µM
SNB-19 CNS
  TGI: > 100 µM
IGROV1 ovarian
  TGI: > 100 µM
MDA-MB-435
  TGI: > 100 µM
SF-268 CNS
  TGI: > 100 µM
HL-60(TB) leukemia
  TGI: > 100 µM
HCT-15 colon
  TGI: > 100 µM
UACC-257 melanoma
  TGI: > 100 µM
MOLT-4 leukemia
  TGI: > 100 µM
RXF 393 renal
  TGI: > 100 µM
